# Assay results: US4564627A, “Feed composition” (Nihon Nohyaku Co., Ltd., priority 1982, dated 1986)
# “Also recorded” adds a separate entry of the source.
# Assays:
# LD50 mouse (male) = settings: in vivo
# Text: Examples of the compounds represented by the general formula [1] according to this invention and their toxicities are shown below.
# laying hens [1] = test: Strength of eggshell of laying hens (Test Example 2); type: in vivo
# Text: (§1) As test hens, commercially available laying hens of 480 day age were used. The control group fed with a feed not containing any compound of this invention consisted of 100 laying hens, and each test group fed with a feed containing a compound of this invention consisted of 10 laying hens. The test was repeated twice. The test period was 16 weeks from Nov. 17, 1981 to Mar. 8, 1982. The first 4 weeks from the start was a preliminary observation period, during which each group was controlled so as to give the same egg production rate. As the feed, a commercially available feed for laying hens (Cp 16% or above, ME 2,800 kcal/kg or above) was used. From the 5th week, predetermined quantities of test compounds were uniformly added to this feed and the resulting blended feeds were given to test groups. Feeds and water were given ad libitum. Constant lighting was made for 14 hr a day. Egg production rate was daily recorded for each individual hen and egg weight for each test group. Feed intake quantity was obtained by calculating on every other week a difference between quantity fed and quantity left. For examining egg quality, strength of eggshell and thickness of eggshell were measured for all normal eggs laid during a period of the previous day of measurement to 3 P.M. of the measurement day. Strength of eggshell was measured by a FHK eggshell strength tester model FN-597, and thickness of eggshell by a dial thickness gauge.
# [2] = Feed intake of laying hens (Test Example 2); type: in vivo; settings: 2,500 ppm in feed
# Text: as §1, with “Constant lighting was made for 14 hr a day.” left out
# broilers [3] = test: Abdominal fat deposit of broilers (Test Example 1); type: in vivo, "A A Fuji" broilers (chicken)
# Experimental: (§2) To each group consisting of 30 "A A Fuji" broilers (15 male, 15 female), a commercially available early period broiler feed (crumble form, Cp 22%, ME 3,030 kcal/kg) was given from beginning of feeding to 4 week age, and a latter period broiler feed (mash form, Cp 18%, ME 3,030 kcal/kg) was given ad libitum from 4 week age to 10 week age. The test period was from Oct. 10, 1981 through Dec. 20, 1981. Addition of test compounds to the above feeds in predetermined concentrations was conducted from 3 week age through the completion of the test.
# (§3) Five broilers at 6 week age, five broilers at 8 week age and ten broilers at 10 week age were taken out from each group and slaughtered. Immediately after slaughtering, they were cooled in water for about 2 hr and the body weight of each slaughtered broiler was measured and subsequently they were stored at 2° C. for about 20 hr. Then, in order to measure abdominal fat, mesentary fat was removed and fat adhered to from gizzard to proventriculus was collected and weighed as the weight of abdominal fat. This weight was divided by body weight to obtain abdominal fat deposit per 100 g of body weight. Further, liver fat was also collected and weighed. A liver under freeze storage was cut into slices in a total quantity of 2 to 3 g. The slices were placed in a cylindrical filter paper and weighed. Then, these slices were dried for 3 hr in a hot air drier kept at 90° C. and subsequently extracted for 17 hr with ethyl ether in a Soxhlet fat extractor. After drying the extract for 3 hr at 60° C. and weighing the residue, crude fat content in liver was calculated.
# [4] = Feed consumption of broilers (Test Example 1); type: in vivo, "A A Fuji" broilers (chicken); settings: 2,400 ppm in feed
# Experimental: as §2
# Feed consumption was calculated by weighing feeds left at the time of body weight measurement, and therefrom feed conversion ratio was calculated.
# broilers [5] = test: Crude fat content in liver of broilers (Test Example 1); type: in vivo, "A A Fuji" broilers (chicken)
# Experimental: as §2, §3
# laying hens [6] = test: Thickness of eggshell of laying hens (Test Example 2); type: in vivo
# Text: as §1
# [7] = Growth of body weight of broilers (Test Example 1); type: in vivo, "A A Fuji" broilers (chicken); settings: for Body weight at week age 0: week age 0 (before addition); for Body weight at week age 3: week age 3 (start of addition)
# Experimental: as §2
# (1) Growth of body weight
# […] All broilers were measured and an average body weight was calculated for each group.
smiles,measurement,setting,value
CC(C)OC(=O)C(C(=O)OC(C)C)=C1SC(C(=O)O)S1 (stereo not shown),LD50,LD50 mouse (male),> 5000 mg/kg
CC(C)OC(=O)C(C(=O)OC(C)C)=C1SCS1 [compound 1],LD50,LD50 mouse (male),> 5000 mg/kg
CCOC(=O)C(C(=O)OC(C)C)=C1SCS1 [compound 2],LD50,LD50 mouse (male),> 5000 mg/kg
CC(C)OC(=O)C(C(=O)OC(C)C)=C1SC=CS1 [compound 4],Eggshell strength,"laying hens [1]; 509th day, 100 ppm in feed",2.47 kg
same,Eggshell strength,"laying hens [1]; 509th day, 500 ppm in feed",2.46 kg
same,Eggshell strength,"laying hens [1]; 509th day, 2,500 ppm in feed",2.44 kg
same,Eggshell strength,"laying hens [1]; 555th day, 100 ppm in feed",2.88 kg
same,Eggshell strength,"laying hens [1]; 555th day, 500 ppm in feed",2.93 kg
same,Eggshell strength,"laying hens [1]; 555th day, 2,500 ppm in feed",2.97 kg
same,Eggshell strength,"laying hens [1]; 612th day, 100 ppm in feed",2.97 kg
same,Eggshell strength,"laying hens [1]; 612th day, 500 ppm in feed",3.02 kg
same,Eggshell strength,"laying hens [1]; 612th day, 2,500 ppm in feed",3.08 kg
same,Feed intake (in words),[2],a lower value was seen with significance
same,Abdominal fat deposit,"broilers [3]; 6w, 200 ppm in feed",3.20 g/100 g
same,Abdominal fat deposit,"broilers [3]; 6w, 400 ppm in feed",3.02 g/100 g
same,Abdominal fat deposit,"broilers [3]; 6w, 800 ppm in feed",2.93 g/100 g
same,Abdominal fat deposit,"broilers [3]; 6w, 2,400 ppm in feed",2.92 g/100 g
same,Abdominal fat deposit,"broilers [3]; 8w, 200 ppm in feed",3.55 g/100 g
same,Abdominal fat deposit,"broilers [3]; 8w, 400 ppm in feed",3.18 g/100 g
same,Abdominal fat deposit,"broilers [3]; 8w, 800 ppm in feed",3.22 g/100 g
same,Abdominal fat deposit,"broilers [3]; 8w, 2,400 ppm in feed",3.15 g/100 g
same,Abdominal fat deposit,"broilers [3]; 10w, 200 ppm in feed",3.83 g/100 g
same,Abdominal fat deposit,"broilers [3]; 10w, 400 ppm in feed",3.78 g/100 g
same,Abdominal fat deposit,"broilers [3]; 10w, 800 ppm in feed",3.37 g/100 g
same,Abdominal fat deposit,"broilers [3]; 10w, 2,400 ppm in feed",3.22 g/100 g
same,Feed consumption (in words),[4],significant reduction of feed consumption
same,LD50,LD50 mouse (male); unit printed kg/mg,3120 mg/kg
same,Crude fat content in liver,"broilers [5]; 6w, 200 ppm in feed",2.20%
same,Crude fat content in liver,"broilers [5]; 6w, 400 ppm in feed",2.06%
same,Crude fat content in liver,"broilers [5]; 6w, 800 ppm in feed",2.17%
same,Crude fat content in liver,"broilers [5]; 6w, 2,400 ppm in feed",2.11%
same,Crude fat content in liver,"broilers [5]; 8w, 200 ppm in feed",5.23%
same,Crude fat content in liver,"broilers [5]; 8w, 400 ppm in feed",5.02%
same,Crude fat content in liver,"broilers [5]; 8w, 800 ppm in feed",4.62%
same,Crude fat content in liver,"broilers [5]; 8w, 2,400 ppm in feed",4.04%
same,Crude fat content in liver,"broilers [5]; 10w, 200 ppm in feed",4.47%
same,Crude fat content in liver,"broilers [5]; 10w, 400 ppm in feed",4.29%
same,Crude fat content in liver,"broilers [5]; 10w, 800 ppm in feed",4.25%
same,Crude fat content in liver,"broilers [5]; 10w, 2,400 ppm in feed",3.96%
same,Eggshell thickness,"laying hens [6]; 509th day, 100 ppm in feed",0.345 mm
same,Eggshell thickness,"laying hens [6]; 509th day, 500 ppm in feed",0.342 mm
same,Eggshell thickness,"laying hens [6]; 509th day, 2,500 ppm in feed",0.336 mm
same,Eggshell thickness,"laying hens [6]; 555th day, 100 ppm in feed",0.343 mm
same,Eggshell thickness,"laying hens [6]; 555th day, 500 ppm in feed",0.350 mm
same,Eggshell thickness,"laying hens [6]; 555th day, 2,500 ppm in feed",0.347 mm
same,Eggshell thickness,"laying hens [6]; 612th day, 100 ppm in feed",0.342 mm
same,Eggshell thickness,"laying hens [6]; 612th day, 500 ppm in feed",0.345 mm
same,Eggshell thickness,"laying hens [6]; 612th day, 2,500 ppm in feed",0.344 mm
same,Growth of body weight (in words),"[7]; broilers, 2,400 ppm in feed",badly affected; also recorded: lower growth of body weight
same,Body weight at week age 0,[7]; 200 ppm in feed from 3 week age,41 g
same,Body weight at week age 0,[7]; 400 ppm in feed from 3 week age,41 g
same,Body weight at week age 0,[7]; 800 ppm in feed from 3 week age,41 g
same,Body weight at week age 0,"[7]; 2,400 ppm in feed from 3 week age",41 g
same,Body weight at week age 3,[7]; 200 ppm in feed,620 g
same,Body weight at week age 3,[7]; 400 ppm in feed,626 g
same,Body weight at week age 3,[7]; 800 ppm in feed,625 g
same,Body weight at week age 3,"[7]; 2,400 ppm in feed",621 g
same,Body weight at week age 4,[7]; 200 ppm in feed,981 g
same,Body weight at week age 4,[7]; 400 ppm in feed,985 g
same,Body weight at week age 4,[7]; 800 ppm in feed,984 g
same,Body weight at week age 4,"[7]; 2,400 ppm in feed",974 g
same,Body weight at week age 5,[7]; 200 ppm in feed,"1,341 g"
same,Body weight at week age 5,[7]; 400 ppm in feed,"1,346 g"
same,Body weight at week age 5,[7]; 800 ppm in feed,"1,330 g"
same,Body weight at week age 5,"[7]; 2,400 ppm in feed","1,316 g"
same,Body weight at week age 6,[7]; 200 ppm in feed,"1,661 g"
same,Body weight at week age 6,[7]; 400 ppm in feed,"1,667 g"
same,Body weight at week age 6,[7]; 800 ppm in feed,"1,662 g"
same,Body weight at week age 6,"[7]; 2,400 ppm in feed","1,640 g"
same,Body weight at week age 7,[7]; 200 ppm in feed,"2,090 g"
same,Body weight at week age 7,[7]; 400 ppm in feed,"2,102 g"
same,Body weight at week age 7,[7]; 800 ppm in feed,"2,065 g"
same,Body weight at week age 7,"[7]; 2,400 ppm in feed","2,003 g"
same,Body weight at week age 8,[7]; 200 ppm in feed,"2,502 g"
same,Body weight at week age 8,[7]; 400 ppm in feed,"2,512 g"
same,Body weight at week age 8,[7]; 800 ppm in feed,"2,496 g"
same,Body weight at week age 8,"[7]; 2,400 ppm in feed","2,388 g"
same,Body weight at week age 9,[7]; 200 ppm in feed,"2,860 g"
same,Body weight at week age 9,[7]; 400 ppm in feed,"2,874 g"
same,Body weight at week age 9,[7]; 800 ppm in feed,"2,871 g"
same,Body weight at week age 9,"[7]; 2,400 ppm in feed","2,796 g"
same,Body weight at week age 10,[7]; 200 ppm in feed,"3,105 g"
same,Body weight at week age 10,[7]; 400 ppm in feed,"3,115 g"
same,Body weight at week age 10,[7]; 800 ppm in feed,"3,098 g"
same,Body weight at week age 10,"[7]; 2,400 ppm in feed","2,984 g"
CCOC(=O)C(C(=O)OCC)=C1SC=CS1 [compound 5],LD50,LD50 mouse (male),4900 mg/kg
CC(C)OC(=O)C(C(=O)OC(C)C)=C1SCC[S+]1[O-] (stereo not shown) [compound 7],LD50,LD50 mouse (male),> 6000 mg/kg
CC(C)OC(=O)C(C(=O)OC(C)C)=C1SCC(O)S1 (stereo not shown) [compound 8],LD50,LD50 mouse (male),> 6590 mg/kg
